Source: patent US6930093B2, “Use of ribofuranose derivatives against inflammatory bowel diseases” (Valeant Research & Development, priority 2003, dated 2005)
“And” between values parts separate entries of the source, which are not always exact repeats. Equal entries are not always repeated.

Tested on: DNBS induced distal colitis in Wistar rats
Assay: DNBS (2,4 dinitrobenzenesulfonic acid) induced distal colitis in Wistar rats as a model for inflammatory bowel disease
Format: in vivo, Wistar derived female rats
Conditions: for I: Table 3; for I / Colon weight per 100 g B.W.: ribavirin 100 mg/kg × 7 or sulfasalazine 300 mg/kg × 7 p.o.; for Colon weight per 100 g B.W.: sacrifice 24 hours after final dosing
Protocol: Wistar derived female rats were provided by MDS Pharma Services Taiwan Ltd. and housed in APEC^R cages. All animals were maintained in a controlled temperature (22° C.-24° C.) and humidity (60-80%) environment with 12 hours light dark cycles for at least one week in the laboratory prior to use. Free access to standard lab chow (LabDiet, Rodent Diet, PMI Nutrition International, USA) and tap water was granted. All aspects of the work including housing, experimentation and disposal of animals were performed in general accordance with the International Guiding Principles for Biomedical Research Involving Animals (CIOMSI Publication No. ISBN 9290360194, 1985).
[…] (TCI, Japan), absolute ethanol (Merck, Germany), sodium chloride (Wako, Japan), sulfasalazine (Sigma, USA) and Tween 80 (Wako, Japan).
Groups of 3 Wistar derived female rats weighing 180±20 grams and fasted for 24 hours were used. Distal colitis was induced by intra-colonic instillation of 2,4-ninitrobenzene sulfonic acid (DNBS; 30 mg in 0.5 mL ethanol 30%), which was followed by injection of air (2 mL) through a cannula to ensure that the solution remained in the colon. […] Two control groups were similarly treated with vehicle alone while challenged with either DNBS (vehicle-control) or 0.9% NaCl solution (blank-control). The animals were sacrificed 24 hours after the final dosing of test compound and each colon was removed and weighed. During the experiment, the presence of diarrhea was recorded daily. Furthermore, when the abdominal cavity was opened, adhesions between the colon and other organs were first noted; presence of colonic ulceration was evaluated after removal and weighing of each colon. The colon-to-body weight (BW) ratio was then calculated for each animal according to the formula: Colon [(g)/BW(g)]×100%. The “Net” increase in the ratio of vehicle-control+DNBS group relative to vehicle-control group was used as a base for comparison with test substance treated groups and expressed as percent decrease. A 30% or more (≧30%) reduction in colon-to-body weight ratio, relative to the vehicle-treated control group, is considered significant.

SMILES | I (group Avg of 3 rats) | I (individual animals (N 1-3)) | Colon weight per 100 g B.W. (individual animals (N 1-3)) | effectiveness in this IBD model (ribavirin 100 mg/kg p.o., 24 and 2 hours before DNBS and then daily for 5 days) | Colon weight per 100 g B.W. (group Avg of 3 rats)
NC(=O)c1ncn([C@@H]2O[C@H](CO)[C@@H](O)[C@H]2O)n1 [Ribavirin, 1-β-D-ribofuranosyl-1H-1,2,4-triazole-3-carboxamide] | 0.733 | 0.780 and 0.619 and 0.800 | 0.96 and 1.24 | effective | –
O=C(O)c1cc(/N=N/c2ccc(S(=O)(=O)Nc3ccccn3)cc2)ccc1O [Sulfasalazine, sulfasalazine] | 0.625 | 0.631 and 0.548 and 0.697 | 1.01 and 0.85 and 1.08 | – | 0.98
